Among the data in ChEMBL document CHEMBL3507680, “University of Dundee, Gates Library screen for HepG2 cell viability” are cytotoxicity values, retold here.

The data set is described as follows: Human HepG2 cell viability assay in 384 well format. Further details: dose 125 nL, time 70.5 hour; concentration not given beside the values. Particulars: HepG2 cells, read-out: Inhibition. The data set is classed as toxicity, cell-based.
In the case of `CN(C)c1nccc(C2CN(C(=O)CO)C2)n1`, the cytotoxicity at 70.5 h is -4.15%.

With `O=C(c1ncoc1-c1ccco1)N(Cc1ccco1)CC1CCCO1` (stereo not given), the cytotoxicity at 70.5 h is -3.69%.

Consider `CC(C)OCc1nn(CC2CC2)c2c1CN(Cc1ccco1)CC2`, for which the cytotoxicity at 70.5 h was -1.8%.

As for `Cc1cc(C(N)=O)nc(C2(C)CCCN2Cc2cnn(C)c2)n1` (stereo not given), the cytotoxicity at 70.5 h is -4.52%.

As for `NC(=O)CN1CCCC(c2nccnc2Oc2cccc(F)c2)C1` (stereo not given), the cytotoxicity at 70.5 h was -9.46%.

As for `CCOc1cc(CN2CCCC2)ccc1Oc1cccc(C#N)n1`, the cytotoxicity at 70.5 h was -1.2%.

As for `CC(C)Oc1ccc(C(=O)Nc2nncs2)cn1`, the cytotoxicity at 70.5 h turned out to be 5.43%.

For `CC1(C)CC(N(Cc2ccccc2)Cc2ncc[nH]2)CC(C)(C)N1`, the cytotoxicity at 70.5 h is -1.78%.

Consider `Cc1nc(CN2CCN(c3ccc(SC(C)C)nn3)CC2)cs1`, for which the cytotoxicity at 70.5 h is 11.1%.

Take `c1cncc(CN2CCc3c(nnn3CC3CC3)C2COCC2CC2)c1` (stereo not given): the cytotoxicity at 70.5 h was -14.9%.

Turning to `CCS(=O)(=O)CC(=O)N1CCCC(c2noc(C(C)C)n2)C1` (stereo not given), the cytotoxicity at 70.5 h came to 8.9%.

As for `CCc1ccsc1C(=O)N1CCN(CC(C)(C)O)CC1`, the cytotoxicity at 70.5 h was -5.61%.

With `O=C(CC1CC2(CCNCC2)c2ccccc21)NCC1CC1` (stereo not given), the cytotoxicity at 70.5 h is 11.3%.

As for `Cc1nc(-c2cccc(N3CCC(NC4CCOCC4)CC3)c2)cs1`, the cytotoxicity at 70.5 h was -3.92%.

With `COc1ccc(CC(=O)N2CCCC(n3nc(C)cc3C)C2)cc1F` (stereo not given), the cytotoxicity at 70.5 h was -9.02%.

For `CC(=O)N1CCOCC2(CN(Cc3ccc(C)o3)CCO2)C1` (stereo not given), the cytotoxicity at 70.5 h is 28.8%.

`O=C(CCNc1ncccn1)Nc1ccc(Cn2cncn2)cc1`: the cytotoxicity at 70.5 h is -7.19%.

For `COc1cccc(CCNC(=O)CN2CCN(C)CC2C)c1` (stereo not given), the cytotoxicity at 70.5 h was -17.1%.

In the case of `CNC(=O)[C@@H](C1CCCCC1)N1CCC[C@H]1C(=O)NCCN1CCCC1`, the cytotoxicity at 70.5 h came out at 3.4%.

Regarding `N#Cc1ccc(NC2CCN(Cc3ccccn3)CC2)c(F)c1`, the cytotoxicity at 70.5 h is -9.28%.

Regarding `CN(c1ccncn1)C1CC2(CCN(C(=O)CCc3cccs3)C2)C1` (stereo not given), the cytotoxicity at 70.5 h is -10.3%.

As to `COc1ccc(CN2C[C@H]3CC[C@](O)(c4ccc(C)cn4)[C@H]3C2)c(F)c1`, the cytotoxicity at 70.5 h is -0.817%.

`O=C(Nc1nncs1)NC1CCc2ccccc21` (stereo not given): the cytotoxicity at 70.5 h was -8.87%.

On to `CCC(=O)N1CCCN(c2cncc(-n3nc(C)cc3C)n2)CC1`, for which the cytotoxicity at 70.5 h is -4.7%.

Consider `Cc1ncc(CN(C)CC(O)c2ccc(Br)cc2)s1` (stereo not given), for which the cytotoxicity at 70.5 h is -12%.

As to `Cn1cc(CN(CC2(O)CCNC2)C2CCCCC2)cn1` (stereo not given), the cytotoxicity at 70.5 h was 5.59%.

Regarding `COCCCN(Cc1cnc(C2CCCCC2)nc1)C1CCN(C)CC1`, the cytotoxicity at 70.5 h was -16.3%.

Take `Cc1nc(NC(=O)CN2C(=O)c3ccccc3NC2C(C)C)sc1C` (stereo not given): the cytotoxicity at 70.5 h is -11.4%.

Consider `CC(C)Nc1ncccc1C(=O)NCc1cnc(N(C)C)n1C`, for which the cytotoxicity at 70.5 h is -14.4%.

Turning to `O=C(N1CCCC1)N1CCCC2(CCN(c3ccsc3)C2=O)C1` (stereo not given), the cytotoxicity at 70.5 h was -7.85%.

With `Cc1cccc(CN2CC[C@H]3[C@H]2CCN3Cc2cnn(C)c2)n1`, the cytotoxicity at 70.5 h came out at 30.5%.

With `CCCn1nnnc1CN(c1ccc(C)cc1)C(C)C`, the cytotoxicity at 70.5 h is -5.93%.

Regarding `CC(C)c1nnc2n1CCN(CC(=O)Nc1sccc1C#N)C2`, the cytotoxicity at 70.5 h came to 13.5%.

As for `CCOc1nc2cnccc2n(CC(=O)NCCc2ccccc2)c1=O`, the cytotoxicity at 70.5 h was found to be 28.7%.

Consider `CCCn1ncc(CN(CCN(C)C)Cc2ccsc2)c1C`, for which the cytotoxicity at 70.5 h was found to be 31.8%.

Regarding `Cc1ccc(CC(=O)N2CCCC(c3cc(C(N)=O)[nH]n3)C2)cn1` (stereo not given), the cytotoxicity at 70.5 h is -2.37%.

Take `CCN(CC)C(=O)Nc1cccc(Oc2ccccn2)c1`: the cytotoxicity at 70.5 h came to 20.3%.

Take `CN(CC(=O)N1CCOC(CCc2ccccc2)C1)Cc1ccccn1` (stereo not given): the cytotoxicity at 70.5 h was -7.68%.

As to `Cc1nn(C)c(N(C)C)c1CNCc1nnc2n1CCCCC2`, the cytotoxicity at 70.5 h was -6.41%.

Turning to `Cn1ccnc1C(O)c1ccccc1N1CCN(Cc2ccsc2)CC1` (stereo not given), the cytotoxicity at 70.5 h was -5.94%.

As for `CN(C)S(=O)(=O)N1C[C@@H]2CC[C@H](C1)N(Cc1ccc(F)c(F)c1)C2`, the cytotoxicity at 70.5 h was 4.72%.

As to `CCc1ccc(S(=O)(=O)N2CC3(COC(C)(C)OC3)C2)s1`, the cytotoxicity at 70.5 h came out at 14.1%.

As for `Cn1ccc(C(=O)N2CCC3(CCN3c3ncccn3)C2)n1` (stereo not given), the cytotoxicity at 70.5 h was -1.24%.

With `Cn1ccnc1-c1nc(N2CCCCC2)ncc1-c1ccccc1F`, the cytotoxicity at 70.5 h was -7.17%.

For the compound `CN(C)C(=O)COCc1ncn2c1CN(c1ncc(F)cn1)CCC2`, the cytotoxicity at 70.5 h is 9.71%.

As to `COCc1ncc(-c2nccn2CCS(C)(=O)=O)cn1`, the cytotoxicity at 70.5 h was found to be 27.5%.

Regarding `c1cnc(N2CCCC(c3n[nH]c4ncccc34)C2)nc1` (stereo not given), the cytotoxicity at 70.5 h was -4.04%.

Regarding `CCS(=O)(=O)Nc1ccn(Cc2c(F)cccc2Cl)n1`, the cytotoxicity at 70.5 h is -9.46%.

Take `Cc1csc(CCNC(=O)C2CCOC2)n1` (stereo not given): the cytotoxicity at 70.5 h is -2.45%.

For the compound `CSCC[C@H](NC(=O)N1CCC(Cc2ccccc2)CC1)C(=O)O`, the cytotoxicity at 70.5 h was -13.4%.

As to `CC(C)c1n[nH]c(C2CN(C(=O)c3cnccn3)CCO2)n1` (stereo not given), the cytotoxicity at 70.5 h is 18.8%.

For `CSCC(CCO)NC(=O)Nc1cc(F)ccc1C` (stereo not given), the cytotoxicity at 70.5 h was found to be 10.3%.

Regarding `CCN1CCCC1CN(CCN(C)C)S(=O)(=O)c1ccccc1C#N` (stereo not given), the cytotoxicity at 70.5 h was found to be 29.4%.

Consider `Cc1nn(C)c(C)c1C1CCCN1CC(=O)NC(C1CC1)C1CC1` (stereo not given), for which the cytotoxicity at 70.5 h was -2.06%.

Consider `CC(=O)N1C[C@@H](c2ccsc2)[C@@H]2CN(CC3CCCCC3)CC[C@@H]21`, for which the cytotoxicity at 70.5 h was -5.59%.

In the case of `CCS(=O)(=O)NCCCn1ncc2c(C)cccc21`, the cytotoxicity at 70.5 h was -1.77%.

In the case of `CC(=O)N1CCOC2(CCN(C(=O)C3CC3)CC2)C1`, the cytotoxicity at 70.5 h was -10.3%.

For `CC(C)c1nn(C)c(Cl)c1CNCc1ccc2c(c1)OCO2`, the cytotoxicity at 70.5 h is -5.25%.

On to `c1csc(CN2CC(c3nc(-c4cnccn4)no3)C2)c1`, for which the cytotoxicity at 70.5 h is -4.66%.

As for `N#Cc1ccc(N2CCCC2Cn2cncn2)nc1` (stereo not given), the cytotoxicity at 70.5 h is -6.25%.

`CC(C)CN1CCC2(Cc3ccccc3NC2=O)C1` (stereo not given): the cytotoxicity at 70.5 h is -4.52%.

Turning to `Cc1ccc(NC2CCN(C(=O)c3cnn(C(C)(C)C)c3)CC2)nn1`, the cytotoxicity at 70.5 h was -14.1%.

On to `O=C1CCOCCN1Cc1ccc(Cl)c(F)c1`, for which the cytotoxicity at 70.5 h came to 23.1%.

`Cc1nc(NC(=O)CN2CCOC(Cn3cccn3)C2)sc1C` (stereo not given): the cytotoxicity at 70.5 h was -7.06%.

For the compound `Cc1ncccc1NC(=O)c1nc2c(n1C)CCN(C(=O)C1CC1)C2`, the cytotoxicity at 70.5 h was -8.28%.

In the case of `Cc1cc(C)n(CC2CCCN2Cc2ncc(C(C)(C)C)o2)n1` (stereo not given), the cytotoxicity at 70.5 h was -5.22%.

`CSCCC(Nc1nc(C)cc(C)n1)C(=O)NC(C)(C)CO` (stereo not given): the cytotoxicity at 70.5 h came to 25.7%.

As to `CNC(=O)CS(=O)(=O)C1CCN(S(=O)(=O)c2cccc(Cl)c2C)CC1`, the cytotoxicity at 70.5 h is -9.92%.

For the compound `COc1ccc(Oc2cccnc2)cc1CN1CCCC1`, the cytotoxicity at 70.5 h came out at 28.5%.

Consider `Cc1ccc(N2CCCN(C(=O)c3cn(C)c4ccccc34)CC2)nn1`, for which the cytotoxicity at 70.5 h was -7.87%.

For `CN(C)CCN1CC(C(=O)NCc2cccc(-n3cccn3)c2)CC1=O` (stereo not given), the cytotoxicity at 70.5 h was -0.603%.

Regarding `Cn1nc(CC(C)(C)C)cc1NC(=O)c1ccc2[nH]nnc2c1`, the cytotoxicity at 70.5 h was 19%.

Turning to `CN1CCCC1CNC(=O)c1nnn(-c2ccc(F)cc2)c1C1CC1` (stereo not given), the cytotoxicity at 70.5 h was 22.3%.

For `COCc1cnc2n1CCN(Cc1cccnc1)C2C` (stereo not given), the cytotoxicity at 70.5 h was -17.6%.

Consider `COCCCN(Cc1ccncc1)c1cc(C)ncn1`, for which the cytotoxicity at 70.5 h is 6.24%.

For `O=S(=O)(c1cccs1)N1Cc2nc(CN3CCCC3)oc2C1`, the cytotoxicity at 70.5 h is -6.48%.

As to `CN1CCC(N2CCCC(C(=O)N3Cc4ccccc4C3)C2)CC1` (stereo not given), the cytotoxicity at 70.5 h is -14.7%.

For `CCN1CC[C@@]2(C(=O)Nc3ccccc3)CCN(S(C)(=O)=O)CC[C@@H]12`, the cytotoxicity at 70.5 h was -17.9%.

Regarding `CN(C)CC(=O)N1C[C@@H](Oc2ccccn2)[C@H]2OCCC[C@H]21`, the cytotoxicity at 70.5 h worked out at 9.63%.

In the case of `COc1cc(CNCCc2nc(C)cs2)cc2c1OCCO2`, the cytotoxicity at 70.5 h is -0.752%.

For the compound `CCC(NC(=O)CCNC(=O)c1ccccc1F)c1cc(C)ccn1` (stereo not given), the cytotoxicity at 70.5 h is -0.798%.

Regarding `Cc1ccc(CN2CCCC3(CCN(Cc4ccoc4)CC3)C2)cc1`, the cytotoxicity at 70.5 h came to 15.4%.

Regarding `CS(=O)(=O)N1CCOCC2(CCN(c3ccccn3)C2)C1` (stereo not given), the cytotoxicity at 70.5 h was -10.4%.

In the case of `CC(C)C(C)NC(=O)CN1CCSCC1` (stereo not given), the cytotoxicity at 70.5 h is -2.11%.

`COC(=O)CN1N=C(C(=O)N2CCCC2)S(=O)(=O)c2ccccc21`: the cytotoxicity at 70.5 h is -4.54%.

Turning to `Clc1ccccc1CN1CCc2nc(C3CCNCC3)ncc2C1`, the cytotoxicity at 70.5 h was -6.61%.

With `Cn1nc(C(=O)NC2CCCCC2)cc1NC(=O)C1CC1`, the cytotoxicity at 70.5 h was -5.38%.

Turning to `Cc1noc(C)c1NC(=O)Cn1cc(Br)ccc1=O`, the cytotoxicity at 70.5 h was 0.532%.

`Cc1cc(C2CCCN(CCCS(=O)(=O)c3ccccc3)C2)n[nH]1` (stereo not given): the cytotoxicity at 70.5 h was -14%.

For the compound `COC(C)(C)CC(C)NC(=O)NC1CCN(Cc2ccccn2)CC1` (stereo not given), the cytotoxicity at 70.5 h was -0.855%.

In the case of `CN(C)S(=O)(=O)c1ccc(CNC(=O)c2cn3c(n2)CNCC3)cc1`, the cytotoxicity at 70.5 h turned out to be 14.9%.

Turning to `CNc1ccnc(N2C[C@@H](C)[C@](O)(C3CC3)C2)n1`, the cytotoxicity at 70.5 h is -3.1%.

Regarding `Cc1nc(C(=O)N2CCCC2c2noc(C)n2)c[nH]1` (stereo not given), the cytotoxicity at 70.5 h is -4.04%.

With `Cc1noc([C@@]23CCO[C@@H]2CCN(S(=O)(=O)c2cccnc2)C3)n1`, the cytotoxicity at 70.5 h was -6.17%.

On to `CC1CCCCN1c1nc2c(c(=O)[nH]1)CCN(Cc1ccccc1O)C2` (stereo not given), for which the cytotoxicity at 70.5 h was -7.53%.

As for `O=C(Cc1ccccc1F)NCC1CCN(CCc2ccccc2)C1` (stereo not given), the cytotoxicity at 70.5 h was -1.68%.

In the case of `O=C(NCCCn1cncn1)NCC(c1ccccc1)N1CCCC1` (stereo not given), the cytotoxicity at 70.5 h was 0.00173%.

`CC(Cn1cncc1-c1cnn(Cc2ccccc2)c1)N1CCCCC1` (stereo not given): the cytotoxicity at 70.5 h was -1.65%.

Turning to `Cc1nnc(N2CCCC(CS(N)(=O)=O)C2)c(C#N)c1C` (stereo not given), the cytotoxicity at 70.5 h was -2.95%.

On to `Cc1noc(C)c1CN1C[C@@H]2COC[C@H](C(=O)N3CCCCO3)[C@@H]2C1`, for which the cytotoxicity at 70.5 h was -13%.
